# Assay results: patent publication US11649222B2, “Compounds” (UNIVERSITETET I OSLO, priority 2016, dated 2023)
# Like-named read-outs stand apart in the source and are kept apart here. Marks after values point to notes of the source that are not given here.
# Legend:
# Type in all cases: cell-based
# [1] = test system: resistant gram-negative MBL-based bacteria; test: MICx: adjuvant concentration giving carbapenem MIC ≤ 2 mg/L
# Protocol: (§1) • Plate bacterial strain(s) on appropriate media: • Gram-negative bacteria with ESBLs or carbapenemases: green agar plates with 100 mg/L ampicillin • Gram-negative bacteria without β-lactamases: green agar plates • Gram-positive bacteria (Staphylococci and Enterococci): blood agar plates • Incubate o.n. at 37° C. […] (Should be used within 15 min of preparation). • Dilute the 0.5 McFarland suspension 1:100 into MH broth. […] Plate 10 μl of the dilution on MH agar plates (×2). Incubate o.n. at 37° C., count the colonies and calculate the final CFU/ml inoculum in the plate by multiplying the average number of colonies with 10000 and divide by 2. The final inoculum should be between 3-7×10^5 CFU/ml. • Add 50 μl of the prepared bacterial suspension to each well in the microtiter plate except negative growth control. Preparation of Compounds/Antibiotics • Calculate the desired concentration-range and volume of the compounds/antibiotics in the assay. […] Dilute the stock solution in MH broth. Make subsequent 2-fold dilutions in MH broth of the desired concentrations if a concentration range is to be tested (remember the extra dilution factor in the assay plate). Always include extra volume for pipetting. Take into consideration stock solutions that are made in buffers that have an effect on bacterial growth (e.g. DMSO).
# [2] = test system: P. aeruginosa K34-7 (VIM-2); test: Microbroth dilution MIC of carbapenem with/without inhibitor; details: for Meropenem activity in presence of inhibitor: inhibitor 63 mg/L; for Meropenem activity (MIC) in presence of inhibitor: inhibitor 25 mg/L
# Protocol: as §1
# [3] = test system: K. pneumoniae K66-45 (NDM-1); test: as above; details: for Meropenem activity in presence of inhibitor: inhibitor 63 mg/L; for MIC: Klebsiella pneumoniae
# Protocol: as §1
# [4] = test system: P. aeruginosa 50692172 (NDM-1); test: Microbroth dilution MIC of meropenem with/without inhibitor
# Protocol: as §1
# human hepG2 cells = test: In vitro toxicity in human hepG2 cells (AlamarBlue viability)
# Protocol: For viability assays, cells were seeded in white 96-well Nunclon plates at a density of 20,000 cells/well and left overnight to adhere before experiments were conducted. Zn chelators dissolved in DMSO were added to white 96-well plates containing 20000 HepG2 cells/well at concentrations ranging from 1 to 1×10^−6 mM (max DMSO concentration never exceeded 1%) and incubated for 24 hours at 37° C. After 24 hours, AlamarBlue® cell viability reagent (Thermo Fisher, Carlsbad, USA) was added (10% final concentration) and incubated for 4 hours at 37° C.
# [5] = test system: P. aeruginosa 50808021 (No MBL); test: Microbroth dilution MIC of meropenem with/without inhibitor; details: inhibitor 25 mg/L
# Protocol: as §1
# [6] = test system: K. pneumoniae 50732159 (No MBL); test: as above; details: inhibitor 25 mg/L
# Protocol: as §1
# K. pneumoniae K66-45 = details: inhibitor 25 mg/L
# Protocol: After plating and grown overnight at 37° C., only single colonies, ignoring any touching the edges of the plate, were counted.
# 10^9 CFU K66-45 (Mueller-Hinton broth, no selection) was plated and grown overnight, 37° C. Only single colonies, ignoring any touching the edges of the plate, were counted.
# [7] = lowest concentration of compound X that results in a MIC value of ≤ 2 mg/L for carbapenem antibiotics
# [8] = human hepG2 cells, read-out: IC50h
# [9] = human hepG2 cells, 24 hours, AlamarBlue, 8 replicates, read-out: IC50
"MICx [1, 7]",SMILES,IC50 (human hepG2 cells; [8]),Meropenem activity in presence of inhibitor [5],Meropenem activity in presence of inhibitor [6],IC50 (human hepG2 cells; [9]),also measured
> 1000^d μM,"C[C@H](CS)C(=O)N1CCC[C@H]1C(=O)O [Captopril, reference compound]",33 µM,,,,Meropenem activity in presence of inhibitor [2]: 32 mg/L; Meropenem activity in presence of inhibitor ([3]; K. pneumoniae K66-45 NDM-1): 64 mg/L; Meropenem activity in presence of inhibitor ([4]; inhibitor 63 mg/L): 32 to 64 mg/L
,"CCOCCOCCOCCN(CCN(Cc1ccccn1)Cc1ccccn1)Cc1ccccn1 [Example 9, N1-(2-(2-(2-ethoxyethoxy)ethoxy)ethyl)-N1,N2,N2-tris(pyridin-2-ylmethyl)ethane-1,2-diamine]",,,,,Meropenem activity in presence of inhibitor [2]: ≤0.5 mg/L; Meropenem activity in presence of inhibitor ([3]; K. pneumoniae K66-45 NDM-1): ≤0.5 mg/L
,"CC(=O)OC[C@H]1OC(OC(C)=O)[C@H](NC(=O)Cc2ccc(NC(=O)CN(CCN(Cc3ccccn3)Cc3ccccn3)Cc3ccccn3)cc2)[C@@H](OC(C)=O)[C@@H]1OC(C)=O (stereo partly drawn) [Example 22a, (3R,4R,5S,6R)-6-(acetoxymethyl)-3-(2-(4-(2-((2-(bis(pyridin-2-ylmethyl)amino)ethyl)(pyridin-2-ylmethyl)amino)acetamido)phenyl)acetamido) tetrahydro-2H-pyran-2,4,5-triyltriacetate]",,,,,Meropenem activity in presence of inhibitor [2]: 1 mg/L; Meropenem activity in presence of inhibitor ([3]; K. pneumoniae K66-45 NDM-1): 0.25 mg/L
,"O=C(Cc1ccc(NC(=O)CN(CCN(Cc2ccccn2)Cc2ccccn2)Cc2ccccn2)cc1)NC[C@@H](O)CO [Example 23, (R)-2-((2-(bis(pyridin-2-ylmethyl)amino)ethyl)(pyridin-2-ylmethyl)amino)-N-(4-(2-(2,3-dihydroxypropylamino)-2-oxoethyl)phenyl)acetamide]",,>64 mg/L,32 mg/L,,Meropenem activity (MIC) in presence of inhibitor [2]: 1 µg/mL; Meropenem activity in presence of inhibitor ([4]; inhibitor 25 mg/L): 1 mg/L
,"O=C(CN(CCN(Cc1ccccn1)Cc1ccccn1)Cc1ccccn1)Nc1ccc(CCNC(=O)c2cnccn2)cc1 [Example 27, N-(4-(2-((2-(bis(pyridin-2-ylmethyl)amino)ethyl)(pyridin-2-ylmethyl)amino)acetamido)phenethyl)pyrazine-2-carboxamide]",,,,,Meropenem activity in presence of inhibitor [2]: 1 mg/L; Meropenem activity in presence of inhibitor ([3]; K. pneumoniae K66-45 NDM-1): 0.125 mg/L
125 µM,"CN(C[C@H](O)[C@@H](O)[C@H](O)[C@H](O)CO)C(=O)Cc1ccc(-n2cc(CN(Cc3ccccn3)Cc3ccccn3)nn2)cc1 [Example 96, 2-(4-(4-((bis(pyridin-2-ylmethyl)amino)methyl)-1H-1,2,3-triazol-1-yl)phenyl)-N-methyl-N-((2S,3R,4R,5R)-2,3,4,5,6-pentahydroxyhexyl)acetamide]",≥ 118 µM,,,> 1000 µM,
125 µM,"O=C(Cc1ccc(-n2cc(CN(Cc3ccccn3)Cc3ccccn3)nn2)cc1)NC(CO)(CO)CO [Example 98, 2-(4-(4-((bis(pyridin-2-ylmethyl)amino)methyl)-1H-1,2,3-triazol-1-yl)phenyl)-N-(1,3-dihydroxy-2-(hydroxymethyl)propan-2-yl)acetamide]",259 µM,,,259 µM,
31 µM,"CN(C[C@H](O)[C@@H](O)[C@H](O)[C@H](O)CO)C(=O)Cc1ccc(NC(=O)c2ccc(CN(Cc3ccccn3)Cc3ccccn3)nc2)cc1 [Example 99, 6-((bis(pyridin-2-ylmethyl)amino)methyl)-N-(4-(2-(methyl((2S,3R,4R,5R)-2,3,4,5,6-pentahydroxyhexyl)amino)-2-oxoethyl)phenyl)nicotinamide]",217 µM,>64 mg/L,32 mg/L,217 µM,
31 µM,"O=C(Cc1ccc(NC(=O)c2ccc(CN(Cc3ccccn3)Cc3ccccn3)nc2)cc1)NC(CO)(CO)CO [Example 100, 6-((bis(pyridin-2-ylmethyl)amino)methyl)-N-(4-(2-(1,3-dihydroxy-2-(hydroxymethyl)propan-2-ylamino)-2-oxoethyl)phenyl)nicotinamide]",118 µM,>64 mg/L,32 mg/L,> 100 µM,
31 µM,"O=C(NC(CO)(CO)CO)c1ccc(CN(Cc2ccccn2)Cc2ccccn2)nc1 [Example 103, 6-((bis(pyridin-2-ylmethyl)amino)methyl)-N-(1,3-dihydroxy-2-(hydroxymethyl)propan-2-yl)nicotinamide]",67.6 µM,,,67.6 µM,
31 µM,"O=C(c1ccc(CN(Cc2ccccn2)Cc2ccccn2)nc1)N1CCNCC1 [Example 105, (6-((bis(pyridin-2-ylmethyl)amino)methyl)pyridin-3-yl)(piperazin-1-yl)methanone]",,,,~210 µM,"IC50 (human hepG2 cells; Homo sapiens, HepG2, estimated values (footnote c), read-out: IC50h): 100 µM"
,"COC(=O)[C@@H](C)NC(=O)[C@@H](C)NC(=O)Cn1cc(CN(Cc2ccccn2)Cc2ccccn2)nn1 [Example 194, Methyl (2-(4-((bis(pyridin-2-ylmethyl)amino)methyl)1H-1,2,3-triazol-1-yl)acetyl)-D-alanyl-D-alaninate, reference compound]",,>64 mg/L,32 mg/L,,"RF - no of colonies (K. pneumoniae K66-45; MEM 1 mg/L): tntc (tntc = too numerous to count, plates containing either confluent growth or >1000 colonies); RF - no of colonies (K. pneumoniae K66-45; MEM 2 mg/L): tntc (tntc = too numerous to count, plates containing either confluent growth or >1000 colonies); RF - no of colonies (K. pneumoniae K66-45; MEM 4 mg/L): tntc (tntc = too numerous to count, plates containing either confluent growth or >1000 colonies); RF - no of colonies (K. pneumoniae K66-45; MEM 8 mg/L): tntc (tntc = too numerous to count, plates containing either confluent growth or >1000 colonies); Meropenem activity in presence of inhibitor ([4]; inhibitor 25 mg/L): 32 mg/L"
,"CN[C@H](CC(C)C)C(=O)N[C@H]1C(=O)N[C@@H](CC(N)=O)C(=O)N[C@H]2C(=O)N[C@H]3C(=O)N[C@H](C(=O)N[C@H](C(=O)O)c4cc(O)cc(O)c4-c4cc3ccc4O)[C@H](O)c3ccc(c(Cl)c3)Oc3cc2cc(c3O[C@@H]2O[C@H](CO)[C@@H](O)[C@H](O)[C@H]2O[C@H]2C[C@](C)(N)[C@H](O)[C@H](C)O2)Oc2ccc(cc2Cl)[C@H]1O [Vancomycin, reference compound]",,,,,"MICx [1]: > 1000^d μM; IC50 (human hepG2 cells; Homo sapiens, HepG2, read-out: IC50h): 20 µM"
,"C[C@@H](O)[C@H]1C(=O)N2C(C(=O)O)=C(S[C@@H]3CN[C@H](CNS(N)(=O)=O)C3)[C@H](C)[C@H]12 [doripenem, reference compound]",,,,,"MIC ([2]; Pseudomonas aeruginosa, read-out: MIC of doripenem alone): 64 µg/mL; MIC ([3]; K. pneumoniae K66-45 NDM-1, read-out: MIC of doripenem alone): > 64 µg/mL"

SMILES,"MICx [1, 7]",IC50 (human hepG2 cells; [8]),Meropenem activity in presence of inhibitor [5],Meropenem activity in presence of inhibitor [6],IC50 (human hepG2 cells; [9]),also measured
"CN(C[C@H](O)[C@@H](O)[C@H](O)[C@H](O)CO)C(=O)Cc1ccc(NC(=O)CN(CCN(Cc2ccccn2)Cc2ccccn2)Cc2ccccn2)cc1 [Example 25, 2-(4-(2-((2-(bis(pyridin-2-ylmethyl)amino)ethyl)(pyridin-2-ylmethyl)amino)acetamido)phenyl)-N-methyl-N-(2,3,4,5,6-pentahydroxyhexyl)acetamide]",31 µM,113 µM,>64 mg/L,64 mg/L,113 µM,"Meropenem activity (MIC) in presence of inhibitor [2]: 2 µg/mL; MIC ([3]; inhibitor 31.25 μM, 50 μM and 100 μM, K. pneumoniae K66-45, read-out: MIC of MEM in the presence of inhibitor): 0.125 µg/mL; RF - no of colonies (K. pneumoniae K66-45; MEM 1 mg/L): 64 colonies; Meropenem activity in presence of inhibitor ([4]; inhibitor 25 mg/L): 2 mg/L"
